A short description of this series: solubility of TAT salt in water. The format is physicochemical. The following applies: 25° C. As for the experimental part:
The reaction mixture containing the precipitated TAT salt is then cooled to about 5° C. to about 15° C. and stirred, then filtered. The TAT salt is then washed 44. It may be washed with deaerated aqueous acid, such as HCl (33%), and then optionally with deaerated ethanol or methanol to produce a wet cake material. The used acid can then be distilled and recycled (31, 30, 33). […] Using an agitated filter unit during the wash procedures can allow for a reduction of the wash volumes. Under such circumstances, using small amounts of cold (e.g., about 5° C.) water instead of the aqueous acid would be effective; cold water would be used because of lower solubility of the TAT salt in cold water versus, e.g., room temperature. For example, the solubility of TAT.4HCl in water at 25° C. is about 16 wt %.

One compound from patent US8431747B2, “Process for the preparation of monomers for polybenzimidazole materials” (E I du Pont de Nemours and Company, priority 2008, dated 2013) can be followed below.

The structures appear in SMILES notation. Structures can show the parent of a compound that is named as a salt.

Turning to `Cc1c(N)c(N)cc(N)c1N` [TAT.4HCl, 2,3,5,6-tetraaminotoluene salt], the solubility in water result is listed as “about 16 wt %”.
